Data: publication PMC12040169 (PLOS Biology, 2025)

Experiment: in vitro
Details: human, hela cells, % viability

SMILES	viability at 28.5 h, 10 µM
COc1ccc(F)cc1-c1cccc(CC2(C(=O)NCc3cccs3)CCOCC2)c1 [CBK285543]	90.6%
Cc1oc(C(=O)Nc2cccc(CCc3ccncc3)c2)cc1CN1CCOCC1 [CBK285547]	92.8%
CC(Oc1ccc2c(c1)OCO2)C(=O)N1CCc2sccc2C1c1ccccc1 (centres unmarked) [CBK285549]	91.9%
O=C(c1cccc(Cn2cccn2)c1)N1CCc2sccc2C1c1ccccc1 (centres unmarked) [CBK285552]	85.8%
O=C(NCCc1ccc(Cl)cc1)C1CCN(C(=O)c2ccc3nsnc3c2)C1 (centres unmarked) [CBK285553]	95.2%
Cc1ccc(C(=O)Nc2cccc(CCc3ccncc3)c2)c(=O)n1C [CBK285556]	84.4%
Cc1cnc2c(C(=O)Nc3cccc(CCc4ccncc4)c3)cnn2c1 [CBK285558]	106%
COc1ccc(NC(=O)c2cn(C)nc2CC2CCN(CCc3ccccc3)CC2)cc1 [CBK285559]	90.9%
O=C(CC1NC(=O)N(C2CCCCC2)C1=O)Nc1cccc(CCc2ccncc2)c1 (centres unmarked) [CBK285563]	93.1%
O=C(NCC1CCCCC1)C1(Cc2ccc(-c3ccncc3)cc2)CCOCC1 [CBK285564]	121%
O=C(Nc1ccc(-c2cccc(F)c2)cc1)c1ccccc1Cn1cncn1 [CBK285565]	95.6%
Cc1nnnn1-c1ccc(CC(=O)N2CCc3sccc3C2c2ccccc2)cc1 (centres unmarked) [CBK285567]	103%
Nc1ncc(-c2ccc(Cl)cc2)c(C2CCCN(C(=O)C3CCCC3)C2)n1 (centres unmarked) [CBK285571]	95.1%
Nc1ncc(-c2ccc(Cl)cc2)c(C2CCCN(C(=O)Cc3c[nH]c4ccccc34)C2)n1 (centres unmarked) [CBK285574]	113%
CC(=O)N1CCCCC[C@@H]2[C@@H]1C[C@@H](Cc1ccccc1)N2C(=O)c1ccccc1 [CBK285576]	115%
COc1ccc([C@@H]2CN(C(=O)c3ccccc3)[C@H]3CCN(Cc4ccc(F)cc4)C[C@@H]23)cc1 [CBK285581]	109%
COc1ccc([C@H]2CN(C(=O)c3ccccc3)[C@@H]3CCN(Cc4cccs4)C[C@H]23)cc1 [CBK285582]	103%
COc1ccc([C@H]2CN(C(=O)c3ccccc3)[C@@H]3CCN(Cc4ccccc4C)C[C@H]23)cc1 [CBK285583]	105%
COc1ccc([C@H]2CN(C(=O)c3ccccc3)[C@@H]3CCN(Cc4ccsc4)C[C@H]23)cc1 [CBK285585]	103%
O=C(Nc1ccccc1Oc1ccc(F)cc1)c1ccc(Cn2cncn2)cc1 [CBK285587]	118%
O=C(NCCc1ccc(Cl)cc1)C1(Cc2ccc(-c3cccnc3)cc2)CCOCC1 [CBK285589]	94.6%

SMILES	viability at 28.5 h, 10 µM
O=C(NCCc1ccccc1Cl)C1(Cc2ccc(-c3cccnc3)cc2)CCOCC1 [CBK285590]	95.5%
COc1ccc([C@H]2CN(C(=O)c3ccccc3)[C@@H]3CCN(Cc4ccccc4)C[C@H]23)cc1 [CBK285592]	98.5%
COc1ccccc1-c1cccc(CC2(C(=O)NCCc3ccccc3)CCOCC2)c1 [CBK285593]	93.6%
NC(=O)C1(Cc2ccccc2-c2ccccc2)CCN(C(=O)CCc2ccccc2)CC1 [CBK285595]	107%
CN(C(=O)c1c[nH]nc1-c1ccc(CNC(=O)Cc2ccc(F)cc2)cc1)c1ccccc1 [CBK285599]	95.9%
Cc1ccc(C(=O)NCc2ccc(-c3n[nH]cc3C(=O)N(C)c3ccccc3)cc2)cc1 [CBK285600]	98.7%
O=C(c1ccccc1)N1C[C@@H](c2ccsc2)[C@@H]2CN(Cc3ccccc3)CC[C@@H]21 [CBK285602]	104%
O=C(c1ccccc1)N1C[C@@H](c2ccsc2)[C@@H]2CN(Cc3cccc(Cl)c3)CC[C@@H]21 [CBK285603]	108%
O=C(c1ccccc1)N1C[C@H](c2ccsc2)[C@H]2CN(Cc3ccsc3)CC[C@H]21 [CBK285604]	118%
COc1cccc(C(NC(=O)Cc2ccc(-n3nnnc3C)cc2)c2ccccc2)c1 (centres unmarked) [CBK285605]	93.4%
O=C(NCCc1ccc(Cl)cc1)C1(Cc2cccc(-c3cccnc3)c2)CCOCC1 [CBK285606]	96.7%
COc1cccc([C@H]2CN(C(=O)c3ccccc3)[C@@H]3CCN(Cc4ccccc4C)C[C@H]23)c1 [CBK285610]	98.6%
O=C(c1ccccc1)N1C[C@@H](c2ccsc2)[C@@H]2CN(Cc3ccc(Cl)cc3)CC[C@@H]21 [CBK285615]	100%
COc1cccc(CN2CC[C@H]3[C@@H](C2)[C@H](c2ccsc2)CN3C(=O)c2ccccc2)c1 [CBK285616]	97.5%
Cc1ccccc1CN1CC[C@H]2[C@@H](C1)[C@H](c1ccsc1)CN2C(=O)c1ccccc1 [CBK285618]	100%
Cc1cccc(CN2CC[C@H]3[C@@H](C2)[C@H](c2ccsc2)CN3C(=O)c2ccccc2)c1 [CBK285619]	106%
Cc1ccccc1Cc1cccc(C2CCN(C(=O)Cc3ccccc3)CC2)n1 [CBK285625]	94.7%
COc1ccc(CN2CCC(c3ncc(C(=O)Nc4ccc(F)cc4)c(C)n3)CC2)cc1 [CBK285629]	101%
O=C(NC1(c2ccccc2)CCCC1)c1ccc(=O)n(CC(=O)N2CCCCC2)c1 [CBK285631]	90.5%
Cc1ccc(S(=O)(=O)NCc2ccc(-c3nn(C)cc3-c3ccncc3C)cc2)cc1 [CBK285632]	89.2%
